Experimental data taken from patent US20240252474A1, “METHODS AND COMPOSITIONS COMPRISING A CARDIO-TOLERATED HDAC INHIBITOR” (HUYABIO International, LLC, priority 2023, published 2024).

Assay: Phase 1b safety and tolerability of HBI-8000 combined with nivolumab (DLTs, TEAEs)
Format: in vivo
Conditions: for Dose-limiting toxicity (DLT): + nivolumab, 28 days
Description: The present example, was a Phase Ib/2 open-label dose finding study for HBI-8000 (also referred to in the art as “chidamide” or “tucidinostat” and also referred to herein as a compound of formula I) in combination with nivolumab in patients with advanced solid tumors, including melanoma, RCC (renal cell carcinoma), and NSCLC (non-small cell lung cancer). This study was conducted in accordance with Good Clinical Practice guidelines and the Declaration of Helsinki and with assurance/approval from the US Department of Health and Human Services; the protocol was approved by the institutional review boards or ethics committees of all participating sites. All patients provided written informed consent to participate before enrollment. […]
HBI-8000 at three dose levels (20 mg, 30 mg, and 40 mg) given orally twice a week (BIW) were evaluated. Doses were taken approximate 30 minutes after a meal. The starting dose (20 mg) was selected based on pharmacokinetic profiles established for monotherapy in Japanese patients with T-cell lymphoma.
The decision to escalate the dose was based on the conventional 3+3 design and observed incidences of dose-limiting toxicities (DLTs). Each treatment cycle was defined as 28 days. […] Subjects experiencing DLT within the first two weeks after having received 100% of assigned dose of HBI-8000 are also evaluable for DLT. Unacceptable toxicities were defined as grade 3 or higher non-hematologic and hematologic toxicities with clinical complications. Unacceptable toxicities observed over the first 28 days following HBI-8000 administration were considered as DLTs. […] HBI-8000 administration continued until disease progression or unacceptable toxicity was observed. The efficacy of the combination was further evaluated in an expanded cohort of selected patient populations at RP2D based on an objective response rate according to Response Evaluation Criteria in Solid Tumors (RECIST) version 1.1 criteria, progression-free survival, and duration of responses.
Safety evaluations included physical examinations, vital signs, ECGs, ECOG performance status, and laboratory tests.
Statistical analyses of safety, tolerability, and anti-tumor activity were primarily descriptive in nature. Toxicities were tabulated by type and grade. The safety population included all patients who received ≥1 dose of HBI-8000 and nivolumab. Continuous variables were summarized using descriptive statistics and categorical variables were summarized with number and percentage at each category. Pharmacokinetic parameters were derived using noncompartmental methods with Phoenix® WinNonlin® Version 6.4 (Certara, L. P., Princeton, NJ, USA).

[1] = 40 mg HBI-8000 BIW + nivolumab, N = 7
[2] = 20, 30 and 40 mg HBI-8000 + nivolumab, N = 17

Nc1cc(F)ccc1NC(=O)c1ccc(CNC(=O)/C=C/c2cccnc2)cc1 [HBI-8000, N-(2-amino-4-fluorophenyl)-4-[[[(2E)-1-oxo-3-(3-pyridinyl)-2-propen-1-yl]amino]methyl]benzamide]
Any SAE, number of subjects [1]: 4 n
Any TEAE, number of subjects [1]: 7 n
Aspartate aminotransferase increased, All, G < 3 [1]: 1 (14) n (%)
Aspartate aminotransferase increased, Related Both, Any G [1]: 1 (14) n (%)
Atrial fibrillation, All, G < 3 [1]: 2 (29) n (%)
Atrial fibrillation, All, G ≥ 3 [1]: 1 (14) n (%)
Atrial fibrillation, Related Both, Any G [1]: 1 (14) n (%)
Contusion, All, G < 3 [1]: 3 (43) n (%)
Contusion, Related Both, Any G [1]: 2 (29) n (%)
Contusion, Related HBI, Any G [1]: 1 (14) n (%)
Decreased appetite, All, G < 3 [1]: 3 (43) n (%)
Decreased appetite, All, G ≥ 3 [1]: 1 (14) n (%)
Decreased appetite, Related Both, Any G [1]: 1 (14) n (%)
Decreased appetite, Related HBI, Any G [1]: 2 (29) n (%)
Dehydration, All, G < 3 [1]: 2 (29) n (%)
Diarrhoea, All, G < 3 [1]: 2 (29) n (%)
Diarrhoea, All, G ≥ 3 [1]: 1 (14) n (%)
Diarrhoea, Related Both, Any G [1]: 2 (29) n (%)
Diarrhoea, Related HBI, Any G [1]: 1 (14) n (%)
Dizziness, All, G < 3 [1]: 2 (29) n (%)
Dizziness, Related Both, Any G [1]: 1 (14) n (%)
Dizziness, Related HBI, Any G [1]: 1 (14) n (%)
Dyspnoea, All, G < 3 [1]: 3 (43) n (%)
Dyspnoea, All, G ≥ 3 [1]: 1 (14) n (%)
Dyspnoea, Related Both, Any G [1]: 1 (14) n (%)
Fall, All, G < 3 [1]: 2 (29) n (%)
Fatigue, All, G < 3 [1]: 2 (29) n (%)
Fatigue, All, G ≥ 3 [1]: 2 (29) n (%)
Fatigue, Related Both, Any G [1]: 2 (29) n (%)
Fatigue, Related HBI, Any G [1]: 1 (14) n (%)
Headache, All, G < 3 [1]: 1 (14) n (%)
Headache, All, G ≥ 3 [1]: 1 (14) n (%)
Headache, Related Both, Any G [1]: 1 (14) n (%)
Headache, Related HBI, Any G [1]: 1 (14) n (%)
Hypocalcaemia, All, G < 3 [1]: 2 (29) n (%)
Hypocalcaemia, Related Both, Any G [1]: 1 (14) n (%)
Hypocalcaemia, Related HBI, Any G [1]: 1 (14) n (%)
Hypokalemia, All, G < 3 [1]: 1 (14) n (%)
Hypokalemia, Related Both, Any G [1]: 1 (14) n (%)
Hypophosphataemia, All, G < 3 [1]: 2 (29) n (%)
Hypophosphataemia, Related Both, Any G [1]: 1 (14) n (%)
Hypophosphataemia, Related HBI, Any G [1]: 1 (14) n (%)
Hypotension, All, G < 3 [1]: 3 (43) n (%)
Hypotension, Related Both, Any G [1]: 1 (14) n (%)
Lipase increased, All, G < 3 [1]: 1 (14) n (%)
Lipase increased, Related Both, Any G [1]: 1 (14) n (%)
Lymphocyte count decreased, All, G < 3 [1]: 2 (29) n (%)
Lymphocyte count decreased, Related Both, Any G [1]: 2 (29) n (%)
Nausea, All, G < 3 [1]: 3 (43) n (%)
Nausea, Related Both, Any G [1]: 2 (29) n (%)
Nausea, Related HBI, Any G [1]: 2 (29) n (%)
Neutrophil count decreased, All, G < 3 [1]: 2 (29) n (%)
Neutrophil count decreased, All, G ≥ 3 [1]: 1 (14) n (%)
Neutrophil count decreased, Related Both, Any G [1]: 1 (14) n (%)
Neutrophil count decreased, Related HBI, Any G [1]: 1 (14) n (%)
Non-cardiac chest pain, All, G < 3 [1]: 2 (29) n (%)
Non-cardiac chest pain, Related HBI, Any G [1]: 1 (14) n (%)
Oedema peripheral, All, G < 3 [1]: 2 (29) n (%)
Oedema peripheral, Related Both, Any G [1]: 1 (14) n (%)
Platelet count decreased, All, G < 3 [1]: 3 (43) n (%)
Platelet count decreased, Related Both, Any G [1]: 1 (14) n (%)
Platelet count decreased, Related HBI, Any G [1]: 2 (29) n (%)
Pleural effusion, All, G < 3 [1]: 2 (29) n (%)
SAE related to HBI-8000 & Nivolumab, number of subjects [1]: 0 n
SAE related to HBI-8000 alone, number of subjects [1]: 0 n
TEAE related to HBI-8000 & Nivolumab, number of subjects [1]: 3 n
TEAE related to HBI-8000 alone, number of subjects [1]: 6 n
TEAE resulting in discontinuation of HBI-8000 alone, number of subjects [1]: 2 n
TEAE resulting in discontinuation of both HBI-8000 and Nivo, number of subjects [1]: 2 n
Vomiting, All, G < 3 [1]: 2 (29) n (%)
Vomiting, Related Both, Any G [1]: 2 (29) n (%)
Weight decreased, All, G < 3 [1]: 1 (14) n (%)
Weight decreased, Related Both, Any G [1]: 1 (14) n (%)
White blood cell count decreased, All, G < 3 [1]: 3 (43) n (%)
White blood cell count decreased, Related Both, Any G [1]: 1 (14) n (%)
White blood cell count decreased, Related HBI, Any G [1]: 2 (29) n (%)
Incidence of TEAE related to HBI-8000 alone versus dose (20, 30, 40 mg BIW + nivolumab): appeared to increase with escalating HBI-8000 dose
Alanine aminotransferase increased, Total [2]: 4 (24) n (%)
Anaemia, Total [2]: 8 (47) n (%)
Aspartate aminotransferase increased, Total [2]: 4 (24) n (%)
Atrial fibrillation, Total [2]: 4 (24) n (%)
Back pain, Total [2]: 4 (24) n (%)
Contusion, Total [2]: 4 (24) n (%)
Decreased appetite, Total [2]: 9 (53) n (%)
Dehydration, Total [2]: 5 (29) n (%)
Diarrhoea, Total [2]: 7 (41) n (%)
Dizziness, Total [2]: 5 (29) n (%)
Dyspnoea, Total [2]: 9 (53) n (%)
Fall, Total [2]: 4 (24) n (%)
Fatigue, Total [2]: 10 (59) n (%)
Headache, Total [2]: 4 (24) n (%)
Hypocalcaemia, Total [2]: 6 (35) n (%)
Hypokalemia, Total [2]: 5 (29) n (%)
Hypophosphataemia, Total [2]: 5 (29) n (%)
Hypotension, Total [2]: 5 (29) n (%)
Hypoxia, Total [2]: 4 (24) n (%)
Lipase increased, Total [2]: 5 (29) n (%)
Lymphocyte count decreased, Total [2]: 5 (29) n (%)
Nausea, Total [2]: 8 (47) n (%)
Neutrophil count decreased, Total [2]: 4 (24) n (%)
Non-cardiac chest pain, Total [2]: 4 (24) n (%)
Oedema peripheral, Total [2]: 7 (41) n (%)
Platelet count decreased, Total [2]: 7 (41) n (%)
Pleural effusion, Total [2]: 5 (29) n (%)
Vomiting, Total [2]: 4 (24) n (%)
Weight decreased, Total [2]: 7 (41) n (%)
White blood cell count decreased, Total [2]: 5 (29) n (%)
Dose-limiting toxicity (DLT) (20-mg dose cohort, 3 DLT-evaluable patients): None
Dose-limiting toxicity (DLT) (30-mg BIW dose cohort, 3 + 3 DLT-evaluable patients): None and No DLT
Patients with DLT: Grade 3 fatigue on days of HBI-8000 administration (40-mg cohort, 6 DLT-evaluable patients, RCC patient): 1 patient
Patients with DLT: Grade 3 headache after first dose and grade 3 diarrhea after third dose (40-mg cohort, 6 DLT-evaluable patients, melanoma patient): 1 patient
Any SAE, number of subjects (Total, all dose levels, N = 17): 11 n
Any TEAE, number of subjects (Total, all dose levels, N = 17): 17 n
TEAE related to HBI-8000 & Nivolumab, number of subjects (Total, all dose levels, N = 17): 11 n
TEAE related to HBI-8000 alone, number of subjects (Total, all dose levels, N = 17): 10 n
TEAE resulting in discontinuation of HBI-8000 alone, number of subjects (Total, all dose levels, N = 17): 5 n
TEAE resulting in discontinuation of both HBI-8000 and Nivo, number of subjects (Total, all dose levels, N = 17): 3 n
Patients who died of TEAE (unrelated to HBI-8000 or nivolumab) (all dose levels, N = 17): One
Patients with Grade 3 or higher TEAEs (all dose levels, N = 17): 15 patients
Patients with only Grade 1 and 2 TEAEs (all dose levels, N = 17): Two
Subjects with TEAEs attributed to the combination and TEAEs associated with HBI-8000 alone (all dose levels, N = 17): Six
Recommended phase II dose (RP2D) (in combination with nivolumab): 30 mg BIW
Maximum tolerated dose (MTD) (oral BIW in combination with nivolumab): < 40 mg
